Reference: US20210127673A1, “HERBICIDES” (SYNGENTA PARTICIPATIONS AG, priority 2016, published 2021)

Key:
Assay type in all cases: in vivo
Zea Mays (ZEAMX) [1] = experiment: Post-emergence herbicidal activity, Zea Mays; design: key: 5=total damage to plant; 0=no damage to plant; settings: 1000 g/ha, evaluated after 13 days, Test 2b
Method: (§1) Seeds of a variety of test species were sown in standard soil in pots: Triticum aestivium (TRZAW), Avena fatua (AVEFA), Alopecurus myosuroides (ALOMY), Echinochloa crus-galli (ECHCG), Lolium perenne (LOLPE), Zea Mays (ZEAMX), Abutilon theophrasti (ABUTH), Amaranthus retroflexus (AMARE) and Setaria faberi (SETFA). After 8 days cultivation (post-emergence) under controlled conditions in a glasshouse (at 24/16° C., day/night; 14 hours light; 65% humidity), the plants were sprayed with an aqueous spray solution derived from the formulation of the technical active ingredient in acetone/water (50:50) solution containing 0.5% Tween 20 (polyoxyethelyene sorbitan monolaurate, CAS RN 9005-64-5). The test plants were then grown in a glasshouse under controlled conditions (at 24/16° C., day/night; 14 hours light; 65% humidity) and watered twice daily. After 13 days, the test was evaluated (5=total damage to plant; 0=no damage to plant).

[2] = system: Amaranthus retroflexus (AMARE); experiment: Post-emergence herbicidal activity, Amaranthus retroflexus; design: key: 5=total damage to plant; 0=no damage to plant; settings: 1000 g/ha, evaluated after 13 days, Test 2b
Method: as §1

Lolium perenne (LOLPE) [3] = experiment: Pre-emergence herbicidal activity, Lolium perenne; design: key: 5=total damage to plant; 0=no damage to plant; settings: 1000 g/ha, evaluated after 13 days; for LOLPE damage score (0-5): Test 1b
How it was run: (§2)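 Pots of seeds were sprayed one day after sowing (pre-emergence) with compound in acetone/water (50:50) plus 0.5% Tween 20, then grown in a glasshouse at 24/16 °C day/night, 14 h light, 65% humidity. Damage scored 0–5 (5 = total damage) after 13 days.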

Setaria faberi (SETFA) [4] = experiment: Post-emergence herbicidal activity, Setaria faberi; design: key: 5=total damage to plant; 0=no damage to plant; settings: 1000 g/ha, evaluated after 13 days; for SETFA damage score (0-5): Test 2b
How it was run: (§3)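 Scores (0 no damage to 5 total damage) read 13 d after spraying. Plants sprayed post-emergence 8 d after sowing; spray solution acetone/water 50:50 with 0.5% Tween 20. Growth at 24/16 °C day/night, 14 h light, 65% RH, twice-daily watering.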

[5] = system: Amaranthus retroflexus (AMARE); experiment: Pre-emergence herbicidal activity, Amaranthus retroflexus; settings: 1000 g/ha, evaluated after 13 days, Test 1b
Method: (§4) Seeds of a variety of test species were sown in standard soil in pots: Triticum aestivium (TRZAW), Avena fatua (AVEFA), Alopecurus myosuroides (ALOMY), Echinochloa crus-galli (ECHCG), Lolium perenne (LOLPE), Zea Mays (ZEAMX), Abutilon theophrasti (ABUTH), Amaranthus retroflexus (AMARE) and Setaria faberi (SETFA). After cultivation for one day (pre-emergence) under controlled conditions in a glasshouse (at 24/16° C., day/night; 14 hours light; 65% humidity), the plants were sprayed with an aqueous spray solution derived from the formulation of the technical active ingredient in acetone/water (50:50) solution containing 0.5% Tween 20 (polyoxyethelyene sorbitan monolaurate, CAS RN 9005-64-5). The test plants were then grown in a glasshouse under controlled conditions (at 24/16°, day/night; 14 hours light; 65% humidity) and watered twice daily. After 13 days, the test was evaluated (5=total damage to plant; 0=no damage to plant).

Zea Mays (ZEAMX) [6] = experiment: Pre-emergence herbicidal activity, Zea Mays; design: key: 5=total damage to plant; 0=no damage to plant; settings: 1000 g/ha, evaluated after 13 days, Test 1b
Method: as §4

[7] = system: Echinochloa crus-galli (ECHCG); experiment: Pre-emergence herbicidal activity, Echinochloa crus-galli; design: key: 5=total damage to plant; 0=no damage to plant; settings: 1000 g/ha, evaluated after 13 days; for ECHCG damage score (0-5): Test 1b
How it was run: as §2

Lolium perenne (LOLPE) [8] = experiment: Post-emergence herbicidal activity, Lolium perenne; settings: 1000 g/ha, evaluated after 13 days; for LOLPE damage score (0-5): Test 2b
How it was run: as §3

[9] = system: Abutilon theophrasti (ABUTH); experiment: Pre-emergence herbicidal activity, Abutilon theophrasti; design: key: 5=total damage to plant; 0=no damage to plant; settings: 1000 g/ha, evaluated after 13 days, Test 1b
Method: as §4

[10] = system: Abutilon theophrasti (ABUTH); experiment: Post-emergence herbicidal activity, Abutilon theophrasti; design: key: 5=total damage to plant; 0=no damage to plant; settings: 1000 g/ha, evaluated after 13 days, Test 2b
Method: as §1

[11] = system: Echinochloa crus-galli (ECHCG); experiment: Post-emergence herbicidal activity, Echinochloa crus-galli; settings: 1000 g/ha, evaluated after 13 days; for ECHCG damage score (0-5): Test 2b
How it was run: as §3

Setaria faberi (SETFA) [12] = experiment: Pre-emergence herbicidal activity, Setaria faberi; design: key: 5=total damage to plant; 0=no damage to plant; settings: 1000 g/ha, evaluated after 13 days; for SETFA damage score (0-5): Test 1b
How it was run: as §2

Avena fatua (AVEFA) [13] = experiment: Post-emergence herbicidal activity, Avena fatua; settings: 1000 g/ha, evaluated after 13 days
How it was run: as §3

Avena fatua (AVEFA) [14] = experiment: Pre-emergence herbicidal activity, Avena fatua; design: key: 5=total damage to plant; 0=no damage to plant; settings: 1000 g/ha, evaluated after 13 days
How it was run: as §2

[15] = system: Alopecurus myosuroides (ALOMY); experiment: Post-emergence herbicidal activity, Alopecurus myosuroides; design: key: 5=total damage to plant; 0=no damage to plant; settings: 1000 g/ha, evaluated after 13 days
How it was run: as §3

[16] = system: Alopecurus myosuroides (ALOMY); experiment: Pre-emergence herbicidal activity, Alopecurus myosuroides; design: key: 5=total damage to plant; 0=no damage to plant; settings: 1000 g/ha, evaluated after 13 days
How it was run: as §2

[17] = system: Triticum aestivium (TRZAW); experiment: Post-emergence herbicidal activity, Triticum aestivium; design: key: 5=total damage to plant; 0=no damage to plant; settings: 1000 g/ha, evaluated after 13 days
How it was run: as §3

[18] = system: Triticum aestivium (TRZAW); experiment: Pre-emergence herbicidal activity, Triticum aestivium; design: key: 5=total damage to plant; 0=no damage to plant; settings: 1000 g/ha, evaluated after 13 days
How it was run: as §2

Compound | ZEAMX damage score (0-5) (Zea Mays (ZEAMX) [1]) | AMARE damage score (0-5) [2] | LOLPE damage score (0-5) (Lolium perenne (LOLPE) [3]) | SETFA damage score (0-5) (Setaria faberi (SETFA) [4]) | AMARE damage score (0-5) [5] | ZEAMX damage score (0-5) (Zea Mays (ZEAMX) [6]) | ECHCG damage score (0-5) [7] | LOLPE damage score (0-5) (Lolium perenne (LOLPE) [8]) | ABUTH damage score (0-5) [9] | ABUTH damage score (0-5) [10] | ECHCG damage score (0-5) [11] | SETFA damage score (0-5) (Setaria faberi (SETFA) [12]) | Control of LOLPE after pre-emergence application (score 0-5) (Lolium perenne (LOLPE) [3]) | Control of SETFA after post-emergence application (score 0-5) (Setaria faberi (SETFA) [4]) | Control of ECHCG after pre-emergence application (score 0-5) [7] | Control of AVEFA after post-emergence application (score 0-5) (Avena fatua (AVEFA) [13]) | Control of LOLPE after post-emergence application (score 0-5) (Lolium perenne (LOLPE) [8]) | Control of AVEFA after pre-emergence application (score 0-5) (Avena fatua (AVEFA) [14]) | Control of ALOMY after post-emergence application (score 0-5) [15] | Control of ALOMY after pre-emergence application (score 0-5) [16] | further results
Cc1cncc(-c2ccc(N(C)C(=O)OC(C)(C)C)c(C(F)(F)F)n2)c1 [Compound B18] | 2 | 0 | 0 | 3 | 1 | 0 | 0 | 1 | 1 | 0 | 2 | 1 |  |  |  |  |  |  |  |  | 
Cc1nc(-c2cncc(F)c2)ccc1NC(=O)OC(C)(C)C [Compound B19] | 5 | 2 | 3 | 5 | 1 | 5 | 4 | 4 | 1 | 1 | 4 | 4 |  |  |  |  |  |  |  |  | 
Cc1nc(-c2cncc(C#N)c2)ccc1NC(=O)OC(C)(C)C [Compound B20] | 4 | 1 | 1 | 5 | 1 | 5 | 5 | 3 | 0 | 0 | 4 | 4 |  |  |  |  |  |  |  |  | 
C=CCOC(=O)Nc1ccc(-c2cncc(F)c2)nc1C(F)(F)F [Compound B119] |  |  |  |  |  |  |  |  |  |  |  |  | 0 | 5 | 3 | 4 | 3 | 2 | 0 | 0 | Control of TRAZW after post-emergence application (score 0-5) [17]: 0; Control of ECHCG after post-emergence application (score 0-5) [11]: 3; Control of TRAZW after pre-emergence application (score 0-5) [18]: 0; Control of SETFA after pre-emergence application (score 0-5) (Setaria faberi (SETFA) [12]): 5
CN1COCN(c2ccc(-c3cncc(F)c3)nc2C(F)(F)F)C1=O [Compound B121, 3-[6-(5-fluoro-3-pyridyl)-2-(trifluoromethyl)-3-pyridyl]-5-methyl-1,3,5-oxadiazinan-4-one] |  |  |  |  |  |  |  |  |  |  |  |  | 0 | 5 | 2 | 3 | 2 | 0 | 0 | 0 | Control of TRAZW after post-emergence application (score 0-5) [17]: 0; Control of ECHCG after post-emergence application (score 0-5) [11]: 3; Control of TRAZW after pre-emergence application (score 0-5) [18]: 0; Control of SETFA after pre-emergence application (score 0-5) (Setaria faberi (SETFA) [12]): 4
C=CCN(C(=O)N(C)C)c1ccc(-c2cncc(F)c2)nc1C(F)(F)F [Compound B123] |  |  |  |  |  |  |  |  |  |  |  |  | 1 | 5 | 3 | 2 | 1 | 1 | 2 | 0 | Control of TRAZW after post-emergence application (score 0-5) [17]: 1; Control of ECHCG after post-emergence application (score 0-5) [11]: 3; Control of TRAZW after pre-emergence application (score 0-5) [18]: 0; Control of SETFA after pre-emergence application (score 0-5) (Setaria faberi (SETFA) [12]): 5
